The values below come from patent US12661415B2, “Isoindolinone compounds and imaging agents for imaging Huntingtin protein” (CHDI Foundation, Inc., priority 2021, dated 2026).

Series [1] concerns the target T1, MBP-HTT(1-89)Q46-His(6×) (Exon1-Q46) protein aggregates (Homo sapiens, UniProt P42858, INS38QQQQQQQQQQQQQQQQQQQQQQQQQ).
T1 construct: MBP-HTT(1-89)Q46-His(6×); His(6×) (C); made in house
The series is described as follows: Exon1-Q46 radioligand binding assay (RBA). As to conditions: aggregated Exon1-Q46 1 μM; 0.3 nM ligand [3H3-methyl]-5-((5-methoxypyridin-2-yl)methoxy)-2-(pyrazin-2-yl)benzo[d]oxazole; 60 minutes at 37° C.; read-out: Potency Range (IC50). The method, then:
Exon1-Q46 Radioligand Binding Assay
For radioligand binding assays (RBA) MBP-HTT(1-89)Q46-His(6×) (“Exon1-Q46”) protein was generated based on a previous publication (Scherzinger et al. Cell, Vol. 90, 549-558, Aug. 8, 1997). For experiments 30 μM MBP-Exon1-Q46 was incubated with 150 μg/mL thrombin in assay buffer (150 mM NaCl, 50 mM Tris pH 8.0) and 2 mM CaCl2 for 16 hours at 37° C. Aggregated Exon1-Q46 was pelleted by centrifugation for 5 minutes at 13,000 rpm in a bench top centrifuge and re-dissolved in the same volume of assay buffer. Test compounds were prepared by titration in DMSO at 11 concentrations from 63 μM to 2 nM. For the RBA, Exon1-Q46 protein aggregates and test compounds were pre-incubated in assay buffer for 20 minutes at room temperature, in 100 μL/well in a 96-well plate (pp, round bottom). Then, ligand was added in 50 μL/well and incubated for 60 minutes at 37° C. Final assay concentrations were 1 μM to 30 pM test compound, 1 μM Exon1-Q46 protein (equivalent monomer concentration) and 0.3 nM ligand [^3H3-methyl]-5-((5-methoxypyridin-2-yl)methoxy)-2-(pyrazin-2-yl)benzo[d]oxazole. Samples were transferred onto GF/B filter plates and washed 2× with 200 μL PBS using a Filtermate Harvester. After drying filter plates for 1 hour at 55° C., the back of the plates were sealed with foil and 30 μL/well scintillation fluid (Packard MicroScint 40) added, incubated for 15 minutes in the dark and counted in a MicroBeta reader. For analysis, replicate data from independent assay plates were normalized towards 0% and 100% inhibition using control wells of vehicle (0% inhibition) and 1 μM unlabelled [^3H3-methyl]-5-((5-methoxypyridin-2-yl)methoxy)-2-(pyrazin-2-yl)benzo[d]oxazole (100% inhibition). IC50 values were determined with a sigmoidal inhibition model with four variables (top, bottom, slope, IC50) in a global fit using the normalized replicate data.
The results for various example compounds were as provided in the table below (+++<100 nM; ++100−500 nM; +>500 nM; ND: not determined): […]

A short description of series [2]: Unbound brain fraction (fu,brain) in mouse brain by equilibrium dialysis. As to conditions: 20% mouse brain homogenate, 5 μM, equilibrium dialysis 6 h at 37° C., average of triplicate. It counts as in vitro ADME. The method, then: Compounds were tested for unbounded brain fraction (or free fraction in brain, fu,brain). It is an accepted standard in the CNS PET imaging field that compounds with low unbound fraction in brain (<5%) likely have high non-specific binding background that is undesirable for the detection of target binding. As a result, fu,brain is an important property in the design of PET ligands for brain imaging [see Zhang et al., Design and selection parameters to accelerate the discovery of novel central nervous system positron emission tomography (PET) ligands and their application in the development of a novel phosphodiesterase 2A PET ligand. J Med Chem 2013, 56 (11), 4568-79; Liu et al., Imaging Mutant Huntingtin Aggregates: Development of a Potential PET Ligand. J Med Chem 2020, 63 (15), 8608-8633].
Determining fu,brain in Mouse Brain by Equilibrium Dialysis. Dialysis membranes (12-14 kDa) (HTDialysis, Connecticut) were soaked in phosphate buffer (10 mM potassium phosphate and 0.8% sodium chloride buffer, pH 7.4 at 37° C.) for a minimum of 1 h, at this time ethanol was added (final concentration of 20% v/v) and membranes continued to soak for 30 min Mouse brain tissue was diluted in phosphate buffer in a […] (w/v) and homogenised using a Precellys 24 (Stretton Scientific, UK) to achieve a final concentration of 20% brain homogenate.
Test compounds prepared as DMSO stocks at 0.5 mM are diluted into brain homogenate to achieve 5 μM final substrate concentration (1% DMSO) and a t=0 sample was prepared by sampling 50 μL of into 400 μL of quench solution (Acetonitrile containing 0.1% formic acid and sulfisoxazole/tolbutamide/imipramine/labetalol 200 nM). Samples were matrix matched with the addition of 50 μL of assay buffer. The HTDialysis Teflon blocks (HTDialysis, Connecticut) were assembled with pre-soaked membrane between each receiver and donor well and clamped in the stainless steel pressure plate (HTDialysis, Connecticut). The lower compartment (acceptor side) was dosed with 120 μL of buffer and the upper compartment (donor side) was dosed with 120 μL of compound in homogenate. All test compounds and controls were completed in triplicate. The HT dialysis plate was sealed and incubated for 6 h at 37° C. shaking at 250 rpm.
Following the incubation, 50 μL of sample was removed from all donor and acceptor wells and transferred into a quench plate containing 400 μL of quench solution. All samples were matrix matched with 50 μL of the alternate blank matrix. Analytical samples were diluted 1:1 with water using the Janus Robot and analysed by LC-MS/MS.
Peak areas of donor and acceptor compartments were compared to determine percent unbound (% fu) and the average of triplicate measurements was reported. Reference T0 sample was used to calculate sample recovery (%). Control compounds were compared with historic and literature values to ensure assay functionality.

Molecules are shown by their SMILES.

T1 sequence (P42858 with tags, fused parts or gaps with the stated changes): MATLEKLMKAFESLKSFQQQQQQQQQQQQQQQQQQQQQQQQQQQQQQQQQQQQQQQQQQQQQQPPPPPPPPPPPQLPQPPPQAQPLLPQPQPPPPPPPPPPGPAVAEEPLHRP

`COc1cnc(COc2cnc3c(c2)CN(c2ccc(=O)n(C)n2)C3=O)c(F)c1` [Compound 12-8, 6-{3-[(3-Fluoro-5-methoxypyridin-2-yl)methoxy]-7-oxo-5H,6H,7H-pyrrolo[3,4-b]pyridin-6-yl}-2-methyl-2,3-dihydropyridazin-3-one]: the IC50 in series [1] is below 100 nM. The “Mean Free Brain Fraction (%)” value in series [2] amounted to 65.0%.

For `COc1ccc(COc2ccc3c(c2F)C(=O)N(c2ccc(=O)n(C)n2)C3)nc1` [Compound 12-10, 7-Fluoro-6-[(5-methoxypyridin-2-yl)methoxy]-2-(1-methyl-6-oxo-1,6-dihydropyridazin-3-yl)-2,3-dihydro-1H-isoindol-1-one], the IC50 in series [1] is below 100 nM. Moreover, the “Mean Free Brain Fraction (%)” value in series [2] turned out to be 16.4%.

Consider `COc1ccc(COc2cc3c(cc2F)C(=O)N(c2ccc(=O)[nH]n2)C3)nc1` [Compound 13-1, 6-Fluoro-5-((5-methoxypyridin-2-yl)methoxy)-2-(6-oxo-1,6-dihydropyridazin-3-yl)isoindolin-1-one], for which the IC50 in series [1] was below 100 nM. In addition, in series [2], the “Mean Free Brain Fraction (%)” value stood at 6.6%.

`COc1ccc(COc2cc3c(cc2F)CN(c2ccc(=O)[nH]n2)C3=O)nc1` [Compound 13-2, 5-Fluoro-6-[(5-methoxy-2-pyridyl)methoxy]-2-(6-oxo-1H-pyridazin-3-yl)isoindolin-1-one]: the IC50 in series [1] was below 100 nM. Moreover, the “Mean Free Brain Fraction (%)” value in series [2] is listed as 6.5%.

Regarding `COc1ccc(COc2cc(F)c3c(c2)C(=O)N(c2ccc(=O)[nH]n2)C3)nc1` [Compound 13-3, 4-Fluoro-6-[(5-methoxy-2-pyridyl)methoxy]-2-(6-oxo-1H-pyridazin-3-yl)isoindolin-1-one], the IC50 in series [1] was below 100 nM. In addition, the “Mean Free Brain Fraction (%)” value in series [2] came out at 6.2%.

With `COc1ccc(COc2cc3c(cc2F)CN(c2cn(C)c(=O)cn2)C3=O)nc1` [Compound 14-1, 5-Fluoro-6-((5-methoxypyridin-2-yl)methoxy)-2-(4-methyl-5-oxo-4,5-dihydropyrazin-2-yl)isoindolin-1-one], in series [1], the IC50 was below 100 nM. The “Mean Free Brain Fraction (%)” value in series [2] is 15.5%.

As to `COc1ccc(COc2cc3c(cc2F)CN(c2cnc(OC)cn2)C3=O)nc1` [Compound 14-2, 5-Fluoro-2-(5-methoxypyrazin-2-yl)-6-((5-methoxypyridin-2-yl)-methoxy)isoindolin-1-one], the IC50 in series [1] was below 100 nM. For the same compound, the “Mean Free Brain Fraction (%)” value in series [2] came out at 0.7%.

As to `COc1ccc(COc2cc3c(cc2F)C(=O)N(c2cn(C)c(=O)cn2)C3)nc1` [Compound 14-3, 6-Fluoro-5-((5-methoxypyridin-2-yl)methoxy)-2-(4-methyl-5-oxo-4,5-dihydropyrazin-2-yl)isoindolin-1-one], the IC50 in series [1] is below 100 nM. Also, the “Mean Free Brain Fraction (%)” value in series [2] is given as 17.1%.

A word on the IC50: it is the concentration that gives 50% inhibition.
